Measurements as given in ChEMBL document CHEMBL5726876, “NHE3-binding compounds and methods for inhibiting phosphate transport” (2019).
Several values for one entry are separate records, joined by “and”; a condition that tells them apart may be missing. Equal entries are not always repeated.

Assay: Cell-based activity under Prompt Conditions: Cell-based activity under Prompt Conditions. Rat or human NHE3-mediated Na+-dependent H+ antiport was measured using a modification of the pH sensitive dye method originally reported by Paradiso (PNAS USA. 81:7436-7440, 1984). Opossum kidney (OK) cells were obtained from the ATCC and propagated per their instructions. The rat NHE3 gene (GenBank M85300) or the human NHE3 gene (GenBank NM_004174.1) was introduced into OK cells via electroporation, and cells were seeded into 96 well plates and grown overnight. Medium was aspirated from the wells, cells were washed twice with NaCl-HEPES buffer (100 mM NaCl, 50 mM HEPES, 10 mM glucose, 5 mM KCl, 2 mM CaCl2, 1 mM MgCl2, pH 7.4), then incubated for 30 min at room temperature with NH4Cl-HEPES buffer (20 mM NH4Cl, 80 mM NaCl, 50 mM HEPES, 5 mM KCl, 2 mM CaCl2, 1 mM MgCl2, pH 7.4) containing 5 μM bis(acetoxymethyl) 3,3′-(3′,6′-bis(acetoxymethoxy)-5-((acetoxymethoxy)carbonyl)-3-oxo-3H-spiro[isobenzofuran-1,9′-xanthene]-2′,7′-diyl)dipropanoate (BCECF-AM).Cells were washed twice with Ammonium free, Na+-free HEPES (100 mM choline, 50 mM HEPES, 10 mM glucose, 5 mM KCl, 2 mM CaCl2, 1 mM MgCl2, pH 7.4) and incubated in the same buffer for 10 minutes at room temperature to lower intracellular pH. […] Initial rates were plotted as the average 2 or more replicates, and pIC50 values were estimated using GraphPad Prism.

Structure (SMILES)	IC50
CN1Cc2c(Cl)cc(Cl)cc2C(c2cccc(S(N)(=O)=O)c2)C1 (centres undefined)	251 nM
NCCOCCOCCN1CCN(c2ccc(-c3nc(N=C(N)N)nc4ccc(Cl)cc34)cc2)CC1	100 nM
N=C(N)Nc1nc(-c2ccc(N3CCN(CCOCCOCCOCCNC(=O)NCCOCCOCCNC(=O)NCCOCCOCCOCCN4CCN(c5ccc(-c6nc(NC(=N)N)nc7ccc(Cl)cc67)cc5)CC4)CC3)cc2)c2cc(Cl)ccc2n1	50.1 nM
NC(N)=Nc1nc(-c2ccc(N3CCN(CCOCCOCCNC(=O)[C@H](O)[C@@H](O)C(=O)NCCOCCOCCN4CCN(c5ccc(-c6nc(N=C(N)N)nc7ccc(Cl)cc67)cc5)CC4)CC3)cc2)c2cc(Cl)ccc2n1	79.4 nM
NCCOCCOCCN1CCN(c2cccc(-c3nc(N=C(N)N)nc4ccc(Cl)cc34)c2)CC1	200 nM
N=C(N)Nc1nc(-c2ccc(S(=O)(=O)NCCOCCOCCN)cc2)c2cc(Cl)ccc2n1	126 nM
N=C(N)Nc1nc(-c2cccc(S(=O)(=O)NCCOCCOCCN)c2)c2cc(Cl)ccc2n1	501 nM
C/C(=C\c1cc(F)c(Oc2ccc(S(=O)(=O)NCCOCCOCCOCCN)cc2)c(F)c1)C(=O)N=C(N)N	126 nM
NCCOCCOCCOc1ccc(-c2nc(N=C(N)N)nc3ccc(Cl)cc23)cc1	112 nM
N=C(N)Nc1nc(-c2cccc(S(=O)(=O)NCCOCCOCCOCCN)c2)c2cc(Cl)ccc2n1	794 nM
C/C(=C\c1cc(F)c(Oc2ccc(S(=O)(=O)NCCOCCOCCOCCNC(=O)OCCOCCOCCOC(=O)NCCOCCOCCOCCNS(=O)(=O)c3ccc(Oc4c(F)cc(/C=C(\C)C(=O)N=C(N)N)cc4F)cc3)cc2)c(F)c1)C(=O)N=C(N)N	31.6 nM
NCCOCCOCCOCCN1CCN(c2ccc(-c3nc(N=C(N)N)nc4ccc(Cl)cc34)cc2)CC1	56.2 nM and 126 nM
CN1Cc2c(Cl)cc(Cl)cc2[C@H](c2cccc(S(=O)(=O)NCCOCCOCCOCCN)c2)C1	45.7 nM
C/C(=C\c1cc(F)c(Oc2ccc(S(=O)(=O)NCCOCCOCCOCCNC(=O)CN(CCN(CC(=O)O)CC(=O)NCCOCCOCCOCCNS(=O)(=O)c3ccc(Oc4c(F)cc(/C=C(\C)C(=O)N=C(N)N)cc4F)cc3)CC(=O)O)cc2)c(F)c1)C(=O)N=C(N)N	31.6 nM
C/C(=C\c1cc(F)c(Oc2ccc(S(=O)(=O)NCCOCCOCCOCCNC(=O)[C@H](O)[C@@H](O)C(=O)NCCOCCOCCOCCNS(=O)(=O)c3ccc(Oc4c(F)cc(/C=C(\C)C(=O)N=C(N)N)cc4F)cc3)cc2)c(F)c1)C(=O)N=C(N)N	126 nM
C/C(=C\c1cc(F)c(Oc2ccc(S(=O)(=O)NCCOCCOCCOCCNCc3ccc(CNCCOCCOCCOCCNS(=O)(=O)c4ccc(Oc5c(F)cc(/C=C(\C)C(=O)N=C(N)N)cc5F)cc4)cc3)cc2)c(F)c1)C(=O)N=C(N)N	200 nM
C/C(=C\c1cc(F)c(Oc2ccc(S(=O)(=O)NCCOCCOCCOCCNC(=O)NCCOCCOCCNC(=O)NCCOCCOCCOCCNS(=O)(=O)c3ccc(Oc4c(F)cc(/C=C(\C)C(=O)N=C(N)N)cc4F)cc3)cc2)c(F)c1)C(=O)N=C(N)N	100 nM
NCCOCCOCCOc1cccc(-c2nc(N=C(N)N)nc3ccc(Cl)cc23)c1	224 nM
COCCNS(=O)(=O)c1cccc(C2CN(C)Cc3c(Cl)cc(Cl)cc32)c1 (centres undefined)	200 nM
C/C(=C\c1cc(F)c(Oc2ccc(S(=O)(=O)NCCOCCOCCOCCNC(=O)COCC(=O)NCCOCCOCCOCCNS(=O)(=O)c3ccc(Oc4c(F)cc(/C=C(\C)C(=O)N=C(N)N)cc4F)cc3)cc2)c(F)c1)C(=O)N=C(N)N	50.1 nM
CN1Cc2c(Cl)cc(Cl)cc2[C@H](c2cccc(S(=O)(=O)NCCOCCOCCOCCNC(=O)COCC(=O)NCCOCCOCCOc3cccc(-c4nc(NC(=N)N)nc5ccc(Cl)cc45)c3)c2)C1	141 nM
CCNC(=O)CCOCCOCCOCCOCCOCCC(=O)NCCOCCOCCOCCN1CCN(c2ccc(-c3nc(NC(=N)N)nc4ccc(Cl)cc34)cc2)CC1	20.9 nM
COCCOCCOCCC(=O)NCCOCCOCCOCCN1CCN(c2cccc(-c3nc(NC(=N)N)nc4ccc(Cl)cc34)c2)CC1	135 nM
CCNC(=O)CN(C)CC(=O)NCCOCCOCCOCCNS(=O)(=O)c1ccc(Oc2c(F)cc(/C=C(\C)C(=O)N=C(N)N)cc2F)cc1	316 nM
